# Results published in patent publication US3970648A, “2-[2-(5-Nitro-2-furyl)vinyl]-4-(anilino)quinazolines” (Diamond Shamrock Corporation, priority 1974, dated 1976).
# Columns and labels:
# Type in all cases: cell-based
# Vibrio coli = test: Bactericide test, Vibrio coli (agar streak plate)
# Outline: (§1)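 Compounds were formulated with Triton X-155/acetone emulsifier (basic formulation 320 ppm, serially diluted) and mixed 2:8 into molten nutrient-tryptic soy agar. Organisms were streaked onto the plates and incubated 48 hr at 28°C. Growth inhibition was scored visually against untreated agar as 0, 50 or 100% control.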
# Salmonella gallinarum = test: Bactericide test, Salmonella gallinarum (agar streak plate); conditions: Salmonella enterica, GALLINARUM
# Outline: (§2)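 Compounds in Triton X-155/acetone emulsifier (basic formulation 320 ppm, diluted serially) were mixed 2:8 into molten nutrient-tryptic soy agar, then organisms streaked on the set plates. After 48 hr at 28°C, growth was scored visually against untreated agar as 0%, 50% (sparse, separated colonies) or 100% control (no visible colonies).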
# Streptococcus agalactiae = test: Bactericide test, Streptococcus agalactiae (agar streak plate)
# Outline: as §1
# Salmonella typhimurium = test: Bactericide test, Salmonella typhimurium (agar streak plate); conditions: Salmonella enterica, TYPHIMURIUM
# Description: (§3) Test formulations were examined for bactericidal and/or bacteriostatic activity against the test organisms shown in Tables A and B. These organisms were chosen as being representative of commercially important pathogens affecting animal agriculture. The antibiotic chlortetracycline was chosen as a positive control, since it has a broad spectrum of activity against a large number of organisms, and its activity can be used for comparative purposes.
# (§4) Basic test formulations of the product of Examples I, II, III, and of chlortetracycline were prepared by dissolving 16 mg (0.016 g) in 2.0 ml of stock emulsifier solution (0.25% Triton X-155 in acetone by volume) and making each solution up to 50 ml with deionized water. The concentration of the test compound in the basic formulation was 320 ppm. Lower concentrations of the test compound were obtained by diluting the basic formulation with a 4% solution of the stock emulsifier in deionized water so that each dilution in the series differed only in test compound content.
# (§5) Nutrient-tryptic soy agar (NTA) consisting of 2.0% Difco Bactoagar 0.8% nutrient broth (Difco), and 0.5% tryptic soy broth (Difco) was prepared and sterilized by autoclaving. A 2 ml aliquot of each test formulation was added to 8 ml of molten NTA. This mixture was then plated in a sterile polystyrene petri dish (100 × 15 mm). After the agar was set, suspensions of each of the test organisms were simultaneously streaked onto the surface of the agar. The inoculated plates were incubated for 48 hr at 28°C. The inhibition of growth of each organism was rated by visual comparison with the organism developing on non-treated agar. Growth inhibition reported as per cent control was rated in three categories as follows: 0% control, growth equivalent to that on non-treated agar; 50% control, sparse development and separated colonies; 100% control, no visible growth or development of colonies.
# Staphylococcus aureus = test: Bactericide test, Staphylococcus aureus (agar streak plate); conditions: Staphylococcus aureus
# Description: as §3, §4, §5
# (§6) Test formulations of the product of Example IV were examined for bactericidal and/or bacteriostatic activity against the test organisms shown in Table B using the Bactericide Test described in Example V. The inhibition of organism growth with each diluted test formulation was rated visually by comparison with the organism developing on a non-treated control agar plate. Growth inhibition reported as per cent control was rated in three categories as follows: 0% control, growth equivalent to that on non-treated agar; 50% control is sparse development and separated colonies; and 100% control, development of individual colonies was not apparent.
# Salmonella cholerasuis = test: Bactericide test, Salmonella cholerasuis (agar streak plate); conditions: Salmonella
# Outline: as §2
# Streptococcus group E = test: Bactericide test, Streptococcus group E (agar streak plate)
# Outline: as §1
# Streptococcus faecalis = test: Bactericide test, Streptococcus faecalis (agar streak plate)
# Outline: as §2
# [1] = system: Erysipelothrix rhusiopathiae; test: Bactericide test, Erysipelothrix rhusiopathiae (agar streak plate)
# Outline: as §1
# Escherichia coli = test: Bactericide test, Escherichia coli (agar streak plate)
# Description: as §3, §4, §5, §6
# [2] = system: Bordetella bronchiseptica; test: Bactericide test, Bordetella bronchiseptica (agar streak plate)
# Outline: as §1
# [3] = 100% inhibition at lower concentrations
structure (smiles),measurement,setting,value
"O=[N+]([O-])c1ccc(C=Cc2nc(Nc3ccc(O)cc3)c3ccccc3n2)o1 [Example I, 2-[2-(5-nitro-2-furyl)vinyl]-4-(p-hydroxyanilino)quinazoline]",effectiveness compared with chlortetracycline (in words),Vibrio coli; [3],considerably more effective
same,inhibition at 0.125 ppm,"Vibrio coli; Campylobacter coli, 0.125 ppm",100%
same,inhibition at 0.25 ppm,"Vibrio coli; Campylobacter coli, 0.25 ppm",100%
same,inhibition at 0.5 ppm,"Vibrio coli; Campylobacter coli, 0.5 ppm",100%
same,inhibition at 1 ppm,"Vibrio coli; Campylobacter coli, 1 ppm",100%
same,inhibition at 2 ppm,"Vibrio coli; Campylobacter coli, 2 ppm",100%
same,inhibition at 4 ppm,"Vibrio coli; Campylobacter coli, 4 ppm",100%
same,inhibition at 8 ppm,"Vibrio coli; Campylobacter coli, 8 ppm",100%
same,inhibition at 16 ppm,"Vibrio coli; Campylobacter coli, 16 ppm",100%
same,inhibition at 32 ppm,"Vibrio coli; Campylobacter coli, 32 ppm",100%
same,inhibition at 64 ppm,"Vibrio coli; Campylobacter coli, 64 ppm",100%
same,inhibition at 0.125 ppm,Salmonella gallinarum; 0.125 ppm,0%
same,inhibition at 0.25 ppm,Salmonella gallinarum; 0.25 ppm,0%
same,inhibition at 0.5 ppm,Salmonella gallinarum; 0.5 ppm,0%
same,inhibition at 1 ppm,Salmonella gallinarum; 1 ppm,0%
same,inhibition at 2 ppm,Salmonella gallinarum; 2 ppm,0%
same,inhibition at 4 ppm,Salmonella gallinarum; 4 ppm,0%
same,inhibition at 8 ppm,Salmonella gallinarum; 8 ppm,0%
same,inhibition at 16 ppm,Salmonella gallinarum; 16 ppm,0%
same,inhibition at 32 ppm,Salmonella gallinarum; 32 ppm,0%
same,inhibition at 64 ppm,Salmonella gallinarum; 64 ppm,0%
same,effectiveness compared with chlortetracycline (in words),Streptococcus agalactiae; [3],considerably more effective
same,inhibition at 0.125 ppm,"Streptococcus agalactiae; Streptococcus agalactiae, 0.125 ppm",100%
same,inhibition at 0.25 ppm,"Streptococcus agalactiae; Streptococcus agalactiae, 0.25 ppm",100%
same,inhibition at 0.5 ppm,"Streptococcus agalactiae; Streptococcus agalactiae, 0.5 ppm",100%
same,inhibition at 1 ppm,"Streptococcus agalactiae; Streptococcus agalactiae, 1 ppm, read-out: % Inhibition",100%
same,inhibition at 2 ppm,"Streptococcus agalactiae; Streptococcus agalactiae, 2 ppm",100%
same,inhibition at 4 ppm,"Streptococcus agalactiae; Streptococcus agalactiae, 4 ppm, read-out: % Inhibition",100%
same,inhibition at 8 ppm,"Streptococcus agalactiae; Streptococcus agalactiae, 8 ppm",100%
same,inhibition at 16 ppm,"Streptococcus agalactiae; Streptococcus agalactiae, 16 ppm, read-out: % Inhibition",100%
same,inhibition at 32 ppm,"Streptococcus agalactiae; Streptococcus agalactiae, 32 ppm",100%
same,inhibition at 64 ppm,"Streptococcus agalactiae; Streptococcus agalactiae, 64 ppm, read-out: % Inhibition",100%
same,inhibition at 0.125 ppm,Salmonella typhimurium; 0.125 ppm,0%
same,inhibition at 0.25 ppm,Salmonella typhimurium; 0.25 ppm,0%
same,inhibition at 0.5 ppm,Salmonella typhimurium; 0.5 ppm,0%
same,inhibition at 1 ppm,"Salmonella typhimurium; 1 ppm, read-out: % Inhibition",0%
same,inhibition at 2 ppm,Salmonella typhimurium; 2 ppm,0%
same,inhibition at 4 ppm,"Salmonella typhimurium; 4 ppm, read-out: % Inhibition",0%
same,inhibition at 8 ppm,Salmonella typhimurium; 8 ppm,0%
same,inhibition at 16 ppm,"Salmonella typhimurium; 16 ppm, read-out: % Inhibition",0%
same,inhibition at 32 ppm,Salmonella typhimurium; 32 ppm,0%
same,inhibition at 64 ppm,"Salmonella typhimurium; 64 ppm, read-out: % Inhibition",0%
same,inhibition at 0.125 ppm,Staphylococcus aureus; 0.125 ppm,0%
same,inhibition at 0.25 ppm,Staphylococcus aureus; 0.25 ppm,0%
same,inhibition at 0.5 ppm,Staphylococcus aureus; 0.5 ppm,0%
same,inhibition at 1 ppm,"Staphylococcus aureus; 1 ppm, read-out: % Inhibition",0%
same,inhibition at 2 ppm,Staphylococcus aureus; 2 ppm,0%
same,inhibition at 4 ppm,"Staphylococcus aureus; 4 ppm, read-out: % Inhibition",0%
same,inhibition at 8 ppm,Staphylococcus aureus; 8 ppm,0%
same,inhibition at 16 ppm,"Staphylococcus aureus; 16 ppm, read-out: % Inhibition",0%
same,inhibition at 32 ppm,Staphylococcus aureus; 32 ppm,0%
same,inhibition at 64 ppm,"Staphylococcus aureus; 64 ppm, read-out: % Inhibition",0%
same,inhibition at 0.125 ppm,Salmonella cholerasuis; 0.125 ppm,0%
same,inhibition at 0.25 ppm,Salmonella cholerasuis; 0.25 ppm,0%
same,inhibition at 0.5 ppm,Salmonella cholerasuis; 0.5 ppm,0%
same,inhibition at 1 ppm,"Salmonella cholerasuis; 1 ppm, read-out: % Inhibition",0%
same,inhibition at 2 ppm,Salmonella cholerasuis; 2 ppm,0%
same,inhibition at 4 ppm,"Salmonella cholerasuis; 4 ppm, read-out: % Inhibition",0%
same,inhibition at 8 ppm,Salmonella cholerasuis; 8 ppm,0%
same,inhibition at 16 ppm,"Salmonella cholerasuis; 16 ppm, read-out: % Inhibition",0%
same,inhibition at 32 ppm,Salmonella cholerasuis; 32 ppm,0%
same,inhibition at 64 ppm,"Salmonella cholerasuis; 64 ppm, read-out: % Inhibition",0%
same,inhibition at 0.125 ppm,Streptococcus group E; 0.125 ppm,100%
same,inhibition at 0.25 ppm,Streptococcus group E; 0.25 ppm,100%
same,inhibition at 0.5 ppm,Streptococcus group E; 0.5 ppm,100%
same,inhibition at 1 ppm,"Streptococcus group E; 1 ppm, read-out: % Inhibition",100%
same,inhibition at 2 ppm,Streptococcus group E; 2 ppm,100%
same,inhibition at 4 ppm,"Streptococcus group E; 4 ppm, read-out: % Inhibition",100%
same,inhibition at 8 ppm,Streptococcus group E; 8 ppm,100%
same,inhibition at 16 ppm,"Streptococcus group E; 16 ppm, read-out: % Inhibition",100%
same,inhibition at 32 ppm,Streptococcus group E; 32 ppm,100%
same,inhibition at 64 ppm,"Streptococcus group E; 64 ppm, read-out: % Inhibition",100%
same,effectiveness compared with chlortetracycline (in words),Streptococcus group E; [3],considerably more effective
same,effectiveness compared with chlortetracycline (in words),Streptococcus faecalis; [3],considerably more effective
same,inhibition at 0.125 ppm,"Streptococcus faecalis; Enterococcus faecalis, 0.125 ppm",100%
same,inhibition at 0.25 ppm,"Streptococcus faecalis; Enterococcus faecalis, 0.25 ppm",100%
same,inhibition at 0.5 ppm,"Streptococcus faecalis; Enterococcus faecalis, 0.5 ppm",100%
same,inhibition at 1 ppm,"Streptococcus faecalis; Enterococcus faecalis, 1 ppm, read-out: % Inhibition",100%
same,inhibition at 2 ppm,"Streptococcus faecalis; Enterococcus faecalis, 2 ppm",100%
same,inhibition at 4 ppm,"Streptococcus faecalis; Enterococcus faecalis, 4 ppm, read-out: % Inhibition",100%
same,inhibition at 8 ppm,"Streptococcus faecalis; Enterococcus faecalis, 8 ppm",100%
same,inhibition at 16 ppm,"Streptococcus faecalis; Enterococcus faecalis, 16 ppm, read-out: % Inhibition",100%
same,inhibition at 32 ppm,"Streptococcus faecalis; Enterococcus faecalis, 32 ppm",100%
same,inhibition at 64 ppm,"Streptococcus faecalis; Enterococcus faecalis, 64 ppm, read-out: % Inhibition",100%
same,effectiveness compared with chlortetracycline (in words),[1]; [3],considerably more effective
same,inhibition at 0.125 ppm,"[1]; Erysipelothrix rhusiopathiae, 0.125 ppm",100%
same,inhibition at 0.25 ppm,"[1]; Erysipelothrix rhusiopathiae, 0.25 ppm",100%
same,inhibition at 0.5 ppm,"[1]; Erysipelothrix rhusiopathiae, 0.5 ppm",100%
same,inhibition at 1 ppm,"[1]; Erysipelothrix rhusiopathiae, 1 ppm",100%
same,inhibition at 2 ppm,"[1]; Erysipelothrix rhusiopathiae, 2 ppm",100%
same,inhibition at 4 ppm,"[1]; Erysipelothrix rhusiopathiae, 4 ppm",100%
same,inhibition at 8 ppm,"[1]; Erysipelothrix rhusiopathiae, 8 ppm",100%
same,inhibition at 16 ppm,"[1]; Erysipelothrix rhusiopathiae, 16 ppm",100%
same,inhibition at 32 ppm,"[1]; Erysipelothrix rhusiopathiae, 32 ppm",100%
same,inhibition at 64 ppm,"[1]; Erysipelothrix rhusiopathiae, 64 ppm",100%
same,inhibition at 0.125 ppm,Escherichia coli; 0.125 ppm,0%
same,inhibition at 0.25 ppm,Escherichia coli; 0.25 ppm,0%
same,inhibition at 0.5 ppm,Escherichia coli; 0.5 ppm,0%
same,inhibition at 1 ppm,"Escherichia coli; 1 ppm, read-out: % Inhibition",0%
same,inhibition at 2 ppm,Escherichia coli; 2 ppm,0%
same,inhibition at 4 ppm,"Escherichia coli; 4 ppm, read-out: % Inhibition",0%
same,inhibition at 8 ppm,Escherichia coli; 8 ppm,0%
same,inhibition at 16 ppm,"Escherichia coli; 16 ppm, read-out: % Inhibition",0%
same,inhibition at 32 ppm,Escherichia coli; 32 ppm,0%
same,inhibition at 64 ppm,"Escherichia coli; 64 ppm, read-out: % Inhibition",0%
same,effectiveness compared with chlortetracycline (in words),[2]; [3],considerably more effective
same,inhibition at 0.125 ppm,"[2]; Bordetella bronchiseptica, 0.125 ppm",100%
same,inhibition at 0.25 ppm,"[2]; Bordetella bronchiseptica, 0.25 ppm",100%
same,inhibition at 0.5 ppm,"[2]; Bordetella bronchiseptica, 0.5 ppm",100%
same,inhibition at 1 ppm,"[2]; Bordetella bronchiseptica, 1 ppm, read-out: % Inhibition",100%
same,inhibition at 2 ppm,"[2]; Bordetella bronchiseptica, 2 ppm",100%
same,inhibition at 4 ppm,"[2]; Bordetella bronchiseptica, 4 ppm, read-out: % Inhibition",100%
same,inhibition at 8 ppm,"[2]; Bordetella bronchiseptica, 8 ppm",100%
same,inhibition at 16 ppm,"[2]; Bordetella bronchiseptica, 16 ppm, read-out: % Inhibition",100%
same,inhibition at 32 ppm,"[2]; Bordetella bronchiseptica, 32 ppm",100%
same,inhibition at 64 ppm,"[2]; Bordetella bronchiseptica, 64 ppm, read-out: % Inhibition",100%
